This is an account of results in US20030166202A1, “P450 Monooxygenases of the cyp79 family” (priority 2000, published 2003).

Data set [1] has as its target T1, CYP79D2 (Manihot esculenta, UniProt Q9M7B7).
T1 construct: made in house
Type of data set: biochemical, cassava. Here is the method: Investigations into the substrate specificity of CYP79D1, CYP79D2, CYP79E1, CYP79E2, CYP79A2, CYP79B2, CYP79B5 and CYP79F1 are carried out in E. coli spheroplasts reconstituted with sorghum NADPH-cytochrome P450 oxidoreductase in the presence of high amounts of lipids. L-α-dioleyl phosphatidyl choline and L-α-dilauroyl phosphatidyl choline are preferred lipids for the reconstitution. […] Depending on the nature of the substrate, substrate specificity may also be determined using intact P. pastoris cells or intact E. coli cells.
The ability of a P450 monooxygenase to convert an aliphatic or aromatic amino acid or chain-elongated methionine homologue to the corresponding oxime can be tested in an assay (see also example 5) comprising
a) incubating a reaction mixture comprising the P450 monooxygenase of the present invention or spheroplasts of E.coli cells expressing said enzyme, the parent amino acid, NADPH, oxygen, NADPH-cytochrome P450 oxidoreductase and lipid at ambient temperature for a certain period of time which is between 2 min and 2 to 6 hours;
b) terminating the reaction for example by the addition of a denaturing compounds such as ethyl acetate; and
c) chemically identifying and quantifying the aldoxime produced.

Data set [2] concerns the target T2, CYP79E1 (Manihot esculenta, UniProt Q9M7B8).
T2 construct: A full length construct (CYP79E1na) encoding native CYP79E1 with silent mutations introduced at codons 3 and 5; made in house; host or cells: E. coli JM109 (vector pSP19g10L)
The experiment in a line: Substrate specificity / reconstitution of CYP79E1. The class given is biochemical, Triglochin maritima. Here is the method: Investigations into the substrate specificity of CYP79D1, CYP79D2, CYP79E1, CYP79E2, CYP79A2, CYP79B2, CYP79B5 and CYP79F1 are carried out in E. coli spheroplasts reconstituted with sorghum NADPH-cytochrome P450 oxidoreductase in the presence of high amounts of lipids. L-α-dioleyl phosphatidyl choline and L-α-dilauroyl phosphatidyl choline are preferred lipids for the reconstitution. […] Neither L-methionine, L-tryptophane nor L-tyrosine are metabolized by CYP79A2. Neither phenylalanine nor tyrosine are metabolized by CYP79B2. Neither L-tryptophane, L-phenylalanine nor L-tyrosine are metabolized by CYP79F1. D-Amino acids are not converted into oximes by CYP79D1, CYP79D2, CYP79E1 and CYP79E2. Depending on the nature of the substrate, substrate specificity may also be determined using intact P. pastoris cells or intact E. coli cells.
Expression levels of the different constructs are determined by CO difference spectroscopy and quantified using an extinction coefficient ε450-490 of 91 mM^−1cm^−1 (Omura et al, J. Biol. Chem. 239: 2370-2378, 1964). Spectra are made from 100 μl or 500 μl whole E. coli cells or using the rich phases from Triton X-114 phase partitioning solubilized in 50 mM KH2PO4/K2HPO4 pH 7.5, 2 mM EDTA, 20% glycerol, 0.2% Triton X-100 (total volume: 1 ml). […] In vitro activities are measured in reconstitution experiments using the rich phase from phase partitioning. […]

Data set [3] deals with T3, CYP79B2 (Arabidopsis thaliana, UniProt O81346).
T3 sequence (O81346 1-541): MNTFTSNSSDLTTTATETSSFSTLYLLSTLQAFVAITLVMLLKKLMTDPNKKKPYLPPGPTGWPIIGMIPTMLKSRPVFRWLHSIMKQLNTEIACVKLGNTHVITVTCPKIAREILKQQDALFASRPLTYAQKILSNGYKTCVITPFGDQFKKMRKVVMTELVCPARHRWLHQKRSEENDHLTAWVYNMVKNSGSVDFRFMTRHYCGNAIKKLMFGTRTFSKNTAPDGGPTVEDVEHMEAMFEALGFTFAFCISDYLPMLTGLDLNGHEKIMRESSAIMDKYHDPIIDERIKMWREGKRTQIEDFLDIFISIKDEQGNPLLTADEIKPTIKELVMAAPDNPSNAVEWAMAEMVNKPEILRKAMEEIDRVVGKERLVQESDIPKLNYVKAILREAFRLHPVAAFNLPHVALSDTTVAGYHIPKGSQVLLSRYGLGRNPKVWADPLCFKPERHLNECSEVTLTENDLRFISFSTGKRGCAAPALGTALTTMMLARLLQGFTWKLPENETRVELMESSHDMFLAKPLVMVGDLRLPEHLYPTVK
The experiment in a line: CYP79B2 activity in E. coli spheroplasts reconstituted with NADPH:cytochrome P450 reductase. The following applies: radiolabelled amino acid, TLC.
Description: The activity of CYP79B2 is measured by reconstituting spheroplasts from E. coli expressing CYP79B2 with purified NADPH:cytochrome P450 reductase from Sorghum bicolor (L.) Moench. […] The reaction is incubated at 34° C. for 30 minutes, extracted two times with ethyl acetate and the ethyl acetate phase is analyzed by TLC using toluen:ethyl acetate 5:1 as eluent. Radiolabelled bands are visualized on a Storm 840 phosphorimager (Molecular Dynamics) and quantified with ImageQuant analysis software (Molecular Dynamics). Substrate specificity is investigated by substituting the ^14C-labelled tryptophan with ^14C-labelled tyrosine or phenylalanine. GC-MS is employed to verify the structure of the compound produced from tryptophan by recombinant CYP79B2. A 450 μl reaction mixture as described above containing 2 mM unlabelled tryptophan is incubated at 34° C. for 2 hours. The reaction mixture is extracted twice with 300 μl CHCl3 and lyophilized until dryness. GC-MS is performed with an HP5890 Series II gas chromatograph coupled to a Jeol JMS-AX505W mass spectrometer. Splitless injection on an SGE column (BPX5, 25 mm×0.25 mm, 0.25 μm film thickness) and a head pressure of 100 kPa are used.
Single colonies are grown overnight at 37° C. in LB medium containing 100 μg/ml ampicillin. 1 ml of the overnight culture is used to inoculate 75 ml TB medium containing 100 μg/ml ampicillin, 75 μg/ml δ-aminolevulinic acid, 1 mM thiamine and 1 mM IPTG. The TB cultures are grown for 44 hours at 125 rpm and 28° C.

T2 sequence (Q9M7B8 whole entry): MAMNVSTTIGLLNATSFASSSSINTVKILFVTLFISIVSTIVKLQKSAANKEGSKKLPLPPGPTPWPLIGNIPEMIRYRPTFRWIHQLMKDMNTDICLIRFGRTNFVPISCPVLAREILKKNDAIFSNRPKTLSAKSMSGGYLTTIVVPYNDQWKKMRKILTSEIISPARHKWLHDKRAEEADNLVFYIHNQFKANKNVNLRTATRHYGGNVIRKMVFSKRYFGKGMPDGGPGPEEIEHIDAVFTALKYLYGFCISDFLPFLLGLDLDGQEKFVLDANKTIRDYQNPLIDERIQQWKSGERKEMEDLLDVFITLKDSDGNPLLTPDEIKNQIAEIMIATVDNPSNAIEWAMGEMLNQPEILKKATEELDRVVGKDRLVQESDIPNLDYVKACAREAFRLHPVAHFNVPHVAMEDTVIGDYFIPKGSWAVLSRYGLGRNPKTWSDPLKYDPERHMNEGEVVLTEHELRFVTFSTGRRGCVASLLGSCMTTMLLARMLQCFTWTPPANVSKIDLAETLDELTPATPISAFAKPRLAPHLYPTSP
T1 sequence (Q9M7B7 whole entry): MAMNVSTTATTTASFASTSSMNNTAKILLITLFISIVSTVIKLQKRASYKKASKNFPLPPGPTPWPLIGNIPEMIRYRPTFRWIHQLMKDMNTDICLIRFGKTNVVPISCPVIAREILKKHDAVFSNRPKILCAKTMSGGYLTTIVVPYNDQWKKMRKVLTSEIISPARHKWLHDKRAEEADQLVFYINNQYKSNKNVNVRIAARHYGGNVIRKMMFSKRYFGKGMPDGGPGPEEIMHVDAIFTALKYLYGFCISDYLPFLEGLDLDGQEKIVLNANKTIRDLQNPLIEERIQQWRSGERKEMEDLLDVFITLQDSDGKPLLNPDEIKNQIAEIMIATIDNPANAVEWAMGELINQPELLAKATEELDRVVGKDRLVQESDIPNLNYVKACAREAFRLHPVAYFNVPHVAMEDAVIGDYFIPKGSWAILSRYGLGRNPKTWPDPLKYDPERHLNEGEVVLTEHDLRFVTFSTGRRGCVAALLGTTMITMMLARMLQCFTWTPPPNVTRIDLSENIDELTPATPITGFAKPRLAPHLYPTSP

As to `N[C@@H](Cc1ccc(O)cc1)C(=O)O` [L-tyrosine], the “conversion to the corresponding oxime by CYP79D2” value in data set [1] is on record as “Neither L-Leucine, L-phenylalanine nor L-tyrosine are metabolized”. Also, the “conversion to the corresponding oxime by CYP79E1” value in data set [2] is listed as “found to convert”. Besides, the “product accumulation in reconstitution of CYP79E1 with CYP71E1” value in data set [2] (with NADPH, NADPH-cytochrome P450 oxidoreductase, CYP71E1) was “considerable amounts of p-hydroxyphenylacetonitrile and p-hydroxybenzaidehyde accumulate”. Moreover, the “oxime production by CYP79B2” value in data set [3] was “No oxime producing activity is detected”.
